# Laboratory results reported in US20050261174A1, “Insecticidal activity of a cyclic peptide” (priority 2004, published 2005).
# Several values for one entry are separate records, joined by “and”; a condition that tells them apart may be missing. Identical values can stand only once. Entries after “also recorded” stand apart in the source; their conditions may differ.
# Tests used:
# Format in all cases: in vivo
# [1] = test system: green peach aphid (Myzus persicae); assay: Insecticidal test for green peach aphid, foliar spray on infested cabbage seedlings; settings: for No. of live aphid, average / No. of live aphid, plant 1 / No. of live aphid, plant 2 / No. of live aphid, plant 3 / No. of live aphid, plant 4: graded after three days; for % control: three days, population reduction versus untreated
# Method: Insecticidal Test for Green Peach Aphid (Myzus persicae).
# Cabbage seedlings grown in 3-inch pots, with 2-3 small (3-5 cm) true leaves, were used as test substrate. The seedlings were infested with green peach aphids (wingless adult and nymph) 2-3 days prior to chemical application. Four seedlings were used for each treatment. To prepare spray solutions, 0.5 mg of test compound was dissolved into 0.5 mL of a 90:10 acetone:water solvent. This 0.5 mL of chemical solution was added to 4.5 mL of water containing 0.025% Tween 20 surfactant to produce a 100 ppm spray solution. Lower concentrations were made by diluting the 100 ppm solution with water containing 0.025% Tween 20.
# A hand-held Devilbiss sprayer was used for spraying a solution to both sides of cabbage leaves until runoff. Reference plants (solvent check) were sprayed with 0.025% Tween 20 containing 9% acetone. Treated plants were held in a holding room for three days at approximately 25° C. and 40% RH prior to grading. Evaluation was conducted by counting the number of live aphids per plant under a microscope. Results are given in Table 3 as percent control based on population reduction versus the untreated.
# [2] = test system: tobacco budworm (Heliothis virescens); assay: Tobacco budworm dietary test; settings: for Symptom, 1 day / Symptom, 3 day: second-instar larvae
# Method: (§1) Insecticidal Test for Tobacco Budworm (Heliothis virescens), Beet Armyworm (Spodoptera exigua) and Cabbage Looper (Trichoplusia ni) in Dietary Assays.
# (§2) Dietary assays were conducted in 128-well plastic trays. To prepare a 1000 ppm stock solution, 0.5 mg of test compound was dissolved into 0.5 mL of a 90:10 acetone:water solvent. The test solutions of 125 ppm and lower concentrations were made by sequentially diluting the stock solution with a 90:10 acetone: water solvent. A volume of 50 μl of the test solutions was pipetted upon the surface of 1 mL of lepidopteran diet (Southland Multi-Species Lepidopteran Diet) in each well of 128-well plastic trays. The highest application rate using the 125 ppm solution was equivalent to 3.1 μg/cm^2. For beet armyworm and cabbage looper, four wells (4 replications) were used for each treatment on each insect species. For tobacco budworm, eight wells (8 replications) were used for each treatment. A second-instar tobacco budworm, two second-instar beet armyworm or two early third-instar cabbage looper larvae were placed upon the treated diet in each well once the solvent had been air-dried. Trays containing the treated diet and larvae were covered with self-adhesive transparent sheets and held in a growth chamber at 25° C., 50-55% RH, and 16 h light: 8 h dark Observation were conducted 1 and 3 days after treatment and infestation.
# [3] = test system: beet armyworm (Spodoptera exigua); assay: Beet armyworm topical test
# Method: Insecticidal Test for Beet Armyworm (Spodoptera exigua) in Topical Assays.
# To prepare topical solutions, 0.5 mg of test compound was dissolved into 0.5 ML of a 90:10 acetone:water solvent. A volume of 1 or 2 μl of the test solutions was topically applied to each of early fourth-instar beet armyworm larvae. Six larvae (6 replications) were used for each treatment. This application rate was equivalent to 1 or 2 μg per larva. Treated larvae were individually placed in wells of 6-well plastic plates and fed an artificial diet. Observations were made at one, two and three days after treatment.
# [4] = test system: cabbage looper (Trichoplusia ni); assay: Cabbage looper dietary test; settings: for Symptom, 1 day / Symptom, 3 day: early third-instar larvae
# Method: as §1, §2
# [5] = test system: cotton aphid (Aphis gossypii); assay: Insecticidal test for cotton aphid, foliar spray on infested squash cotyledons; settings: for % control: 3 days, population reduction versus untreated
# Method: To prepare spray solutions, 0.5 mg of test compound was dissolved into 0.5 mL of a 90:10 acetone: water solvent. This 0.5 mL of chemical solution was added to 4.5 mL of water containing 0.025% Tween 20 surfactant to produce a 100 ppm spray solution. Lower concentrations were made by diluting the 100 ppm solution with water containing 0.025% Tween 20.
# Squash cotyledons with a single cotyledon leaf were infested with cotton aphid (wingless adult and nymph) 16-20 hours prior to application of spray solution. The solution was sprayed with a hand-held Devilbiss sprayer on both sides of each infested squash cotyledon until runoff. Reference plants (solvent check) were sprayed with 0.025% Tween 20 containing 9% acetone. The plants were allowed to air dry and held for 3 days in a controlled room at 25° C. and 40% RH after which time the test was graded. Grading was by actual count using a dissecting microscope and comparison of test counts to the untreated check. Results are given in Table 2 as percent control based on population reduction versus the untreated.
# [6] = test system: beet armyworm (Spodoptera exigua); assay: Beet armyworm dietary test; settings: for Symptom, 1 day / Symptom, 3 day: second-instar larvae
# Method: as §1, §2
# [7] = 1.95 PPM (0.049 ug/cm2) on diet
# [8] = 4 PPM spray, graded after 3 days
# [9] = 20 PPM spray, graded after 3 days
# [10] = 100 PPM spray, graded after 3 days
structure (smiles),measurement,setting,value
"C/C=C1\NC(=O)C2CSSCC/C=C/C(CC(=O)NC(C(C)C)C(=O)N2)OC(=O)C(C(C)C)NC1=O (centres unmarked) [compound of formula (I), FR901228]","No. of live aphid, average",[1]; 20 PPM spray,55
same,"No. of live aphid, plant 1",[1]; 20 PPM spray,47
same,"No. of live aphid, plant 2",[1]; 20 PPM spray,53
same,"No. of live aphid, plant 3",[1]; 20 PPM spray,87
same,"No. of live aphid, plant 4",[1]; 20 PPM spray,32
same,% control,[1]; 20 PPM spray,35.8%
same,"No. of live aphid, average",[1]; 100 PPM spray,24
same,"No. of live aphid, plant 1",[1]; 100 PPM spray,8
same,"No. of live aphid, plant 2",[1]; 100 PPM spray,31
same,"No. of live aphid, plant 3",[1]; 100 PPM spray,30
same,"No. of live aphid, plant 4",[1]; 100 PPM spray,26
same,% control,[1]; 100 PPM spray,72.1%
same,"% Dead, 1 day",[2]; 1 PPM (0.025 ug/cm2) on diet,0%
same,"% Dead, 3 day",[2]; 1 PPM (0.025 ug/cm2) on diet,0%
same,"Symptom, 1 day",[2]; 1 PPM (0.025 ug/cm2) on diet,none
same,"% Dead, 1 day",[2]; 5 PPM (0.13 ug/cm2) on diet,0%
same,"% Dead, 3 day",[2]; 5 PPM (0.13 ug/cm2) on diet,0%
same,"Symptom, 1 day",[2]; 5 PPM (0.13 ug/cm2) on diet,80% size of UTC
same,"Symptom, 3 day",[2]; 5 PPM (0.13 ug/cm2) on diet,60% size of UTC
same,"% Dead, 1 day",[2]; 25 PPM (0.63 ug/cm2) on diet,0%
same,"% Dead, 3 day",[2]; 25 PPM (0.63 ug/cm2) on diet,0%
same,"Symptom, 1 day",[2]; 25 PPM (0.63 ug/cm2) on diet,60% size of UTC
same,"Symptom, 3 day",[2]; 25 PPM (0.63 ug/cm2) on diet,40% size of UTC
same,"% Dead, 1 day",[2]; 125 PPM (3.1 ug/cm2) on diet,0%
same,"% Dead, 3 day",[2]; 125 PPM (3.1 ug/cm2) on diet,0%
same,"Symptom, 1 day","[3]; 1 ug/larva topical, early fourth-instar larvae, 1 day","2 dying w/duiresis, and 2 unable to right, and 2 small, 1 OK"
same,"Symptom, 3 day","[3]; 2 ug/larva topical, early fourth-instar larvae, 3 day",all dead; also recorded: w/duiresis
same,"% Dead, 1 day",[4]; [7],0%
same,"% Dead, 3 day",[4]; [7],0%
same,"Symptom, 1 day",[4]; [7],none
same,"Symptom, 3 day",[4]; [7],none
same,"% Dead, 1 day",[4]; 7.8 PPM (0.195 ug/cm2) on diet,0%
same,"% Dead, 3 day",[4]; 7.8 PPM (0.195 ug/cm2) on diet,0%
same,"Symptom, 1 day",[4]; 7.8 PPM (0.195 ug/cm2) on diet,none
same,"Symptom, 3 day",[4]; 7.8 PPM (0.195 ug/cm2) on diet,60% size of UTC
same,"% Dead, 1 day",[4]; 31.3 PPM (0.78 ug/cm2) on diet,0%
same,"% Dead, 3 day",[4]; 31.3 PPM (0.78 ug/cm2) on diet,0%
same,"Symptom, 1 day",[4]; 31.3 PPM (0.78 ug/cm2) on diet,none
same,"Symptom, 3 day",[4]; 31.3 PPM (0.78 ug/cm2) on diet,40% size of UTC
same,"% Dead, 1 day",[4]; 125 PPM (3.1 ug/cm2) on diet,25%
same,"% Dead, 3 day",[4]; 125 PPM (3.1 ug/cm2) on diet,50%
same,% control,[5]; 4 PPM spray,87%
same,"No. of live aphid, average",[5]; [8],27
same,"No. of live aphid, plant 1",[5]; [8],27
same,"No. of live aphid, plant 2",[5]; [8],40
same,"No. of live aphid, plant 3",[5]; [8],64
same,"No. of live aphid, plant 4",[5]; [8],83
same,% control,[5]; 20 PPM spray,95.2%
same,"No. of live aphid, average",[5]; [9],10
same,"No. of live aphid, plant 1",[5]; [9],16
same,"No. of live aphid, plant 2",[5]; [9],4
same,% control,[5]; 100 PPM spray,100%
same,"No. of live aphid, average",[5]; [10],0
same,"No. of live aphid, plant 1",[5]; [10],0
same,"No. of live aphid, plant 2",[5]; [10],0
same,"% Dead, 1 day",[6]; [7],0%
same,"% Dead, 3 day",[6]; [7],0%
same,"Symptom, 1 day",[6]; [7],90% size of UTC
same,"Symptom, 3 day",[6]; [7],30% size of UTC
same,"% Dead, 1 day",[6]; 7.8 PPM (0.195 ug/cm2) on diet,0%
same,"% Dead, 3 day",[6]; 7.8 PPM (0.195 ug/cm2) on diet,0%
same,"Symptom, 1 day",[6]; 7.8 PPM (0.195 ug/cm2) on diet,70% size of UTC
same,"Symptom, 3 day",[6]; 7.8 PPM (0.195 ug/cm2) on diet,15% size of UTC
same,"% Dead, 1 day",[6]; 31.3 PPM (0.78 ug/cm2) on diet,0%
same,"% Dead, 3 day",[6]; 31.3 PPM (0.78 ug/cm2) on diet,0%
same,"Symptom, 1 day",[6]; 31.3 PPM (0.78 ug/cm2) on diet,50% size of UTC
same,"Symptom, 3 day",[6]; 31.3 PPM (0.78 ug/cm2) on diet,10% size of UTC
same,"% Dead, 1 day",[6]; 125 PPM (3.1 ug/cm2) on diet,0%
same,"% Dead, 3 day",[6]; 125 PPM (3.1 ug/cm2) on diet,100%
same,"Symptom, 1 day",[6]; 125 PPM (3.1 ug/cm2) on diet,30% size of UTC
same,"Symptom, 3 day",[6]; 125 PPM (3.1 ug/cm2) on diet,all dead
"C/C=C1\NC(=O)[C@H]2CSSCC/C=C/[C@H](CC(=O)N[C@H](C(C)C)C(=O)N2)OC(=O)[C@H](C(C)C)NC1=O [compound of formula (I), FR901228]","% Mortality, 1 day","[3]; 1 ug/larva topical, 1 day",0%
same,"% Mortality, 2 day",[3]; 1 ug/larva topical,17%
same,"% Mortality, 3 day","[3]; 1 ug/larva topical, 3 day",67%
same,"% Mortality, 1 day","[3]; 2 ug/larva topical, 1 day",0%
same,"% Mortality, 2 day",[3]; 2 ug/larva topical,85%
same,"% Mortality, 3 day","[3]; 2 ug/larva topical, 3 day",100%
